The term pIC50 denotes the IC50 on a negative log10 scale, so that one unit is a factor of ten.

One data set deals with HepG2 cells. Kind of data set: multi-parametric cytotoxicity assay (HCS). It is filed as cell-based, human. As for the experimental part:
assessment/genetic-toxicology/regulatory-assays.html). Briefly, the numbers of revertant colonies for each of five histidine-requiring strains of Salmonella […]
different classes of genetically active compounds, were evaluated either in the presence or absence of metabolic activation by Aroclor 1254-induced rat liver post-mitochondrial S9 fraction (Supplementary Figure 2B). DTP3 was tested at the […]
expressed as the mean fold increase in colony number for each tester strain upon exposure to DTP3 or strain-specific control compounds (CTR) relative to exposure to vehicle control, either in the presence or absence of metabolic activation (Supplementary Figure 2C). The following significance thresholds were applied to each strain: ≥1.5 folds, strain TA102; ≥2-fold, strains TA98 and TA100; ≥3-fold, […]
(http://www.cyprotex.com/toxicology/multiparametric/cytotoxicity-screening-panel), using High Content Screening (HCS). […]
were treated with a specific dye or antibody, as required by the assay. Plates were then scanned using an ArrayScan VTI automated fluorescence cell imager (Thermo Scientific Cellomics) and analysed for the following measures of toxicity: nuclear size and nuclear morphology, cell membrane permeability, mitochondrial mass, mitochondrial membrane potential (DYm), and cytochrome c release (Figure 2). […]
each compound, cytotoxicity was scored by assessing the minimum effective concentration (MEC) inducing a significant effect relative to vehicle control. […]
and positive controls, respectively. Briefly, upon formation of a stable Gigaohm (GΩ) seal between patch electrodes and individual hERG-expressing HEK-293 cells, hERG-dependent outward tail currents were measured following depolarisation of the cell membrane to […] for 2 s (activation of channels) from a holding potential of - 80 mV, and following subsequent repolarisation to -40 mV, for 3 s. […]
. Electrophysiological measurements were recorded using PatchMaster software (Version v2x73_2). […] The amount of current block was calculated as the percentage of control current. […]

In data set [1] the test system is Sigma receptors (non-selective). Description: Sigma receptor functional assay (agonistic/antagonistic effect). It is filed as biochemical. An excerpt:
SUPPLEMENTARY FIGURE LEGENDS
Supplementary Figure 1 – Related to Figure 1. […]
Values represent the mean
percentage of variation of the response to the reference Sigma-receptor ligand in the
in the absence of any other agents. […]

The next data set concerns the target CYP2C8 (Homo sapiens, UniProt P10632). To be noted: read-out: CYP2C8 IC50.
For data set [2] the following is noted: rat plasma.
Description: Pooled plasma and faeces samples were prepared for metabolite profiling and
identification by sequential extraction with acetonitrile. Pooled urine samples were
centrifuged to remove particulate material. For each sample, metabolite profiles
were generated using radio-HPLC. On-line radio-detection was used for urine and
faeces, whereas off-line radio-detection was used for plasma, due to the low
radioactivity levels present in plasma samples. Selected samples were further
analysed by high resolution LC-MS(/MS) in order to characterise the most notable
Results were expressed as the mean of the indicated number of samples. The
statistical error was calculated as either standard deviation (SD) or standard error of
the mean (SEM), as indicated, according to the typology of the experiments.

pIC50: −log10 of the molar value. Like-named read-outs stand apart in the source and are kept apart here.

Sequence of CYP2C8 (P10632 whole entry): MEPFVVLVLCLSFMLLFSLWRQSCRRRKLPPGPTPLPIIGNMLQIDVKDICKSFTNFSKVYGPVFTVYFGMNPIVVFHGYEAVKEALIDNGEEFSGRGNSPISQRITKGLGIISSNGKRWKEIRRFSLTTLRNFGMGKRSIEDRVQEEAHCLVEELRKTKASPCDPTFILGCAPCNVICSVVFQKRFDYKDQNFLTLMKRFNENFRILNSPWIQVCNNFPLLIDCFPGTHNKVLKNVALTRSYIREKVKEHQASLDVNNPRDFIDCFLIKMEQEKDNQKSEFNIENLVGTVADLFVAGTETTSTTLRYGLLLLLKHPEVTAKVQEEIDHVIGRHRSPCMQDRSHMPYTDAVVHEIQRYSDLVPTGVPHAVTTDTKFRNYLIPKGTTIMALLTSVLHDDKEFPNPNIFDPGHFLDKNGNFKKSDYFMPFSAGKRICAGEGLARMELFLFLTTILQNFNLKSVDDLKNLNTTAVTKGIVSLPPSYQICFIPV
Excerpt for CYP2C8: investigated in vitro, using time-dependent inhibition and catalytic induction assays
conducted at Cyprotex laboratories in accordance with in-house SOP

With `CN(C)CCCN1c2ccccc2Sc2ccc(Cl)cc21` [Chlorpromazine, chlorpromazine], in the data set on HepG2 cells, the “MEC Cell membrane permeability” value is 1.12 µM. Also, in the data set on HepG2 cells (human, 72 h), the “MEC Cytochrome C release” value worked out at 1.30 µM and the “MEC Mitochondrial membrane potential” value stood at 4.70 µM.

For `C[C@@H]1CN(CCCn2c3ccccc3c3ccccc32)C[C@H](C)N1` [Rimcazole, rimcazole], the “Antagonistic Effect, Response” value in data set [1] ([Drug] 1.0E-0.5 M) is recorded as -6 % of ligand binding; in data set [1] ([Drug] 1.0E-0.6 M), 84 % of ligand binding; in data set [1] ([Drug] 3.0E-0.6 M), 49 % of ligand binding.

For `Cc1ccc(C)c(OCCCC(C)(C)C(=O)O[C@@H]2O[C@H](C(=O)O)[C@@H](O)[C@H](O)[C@H]2O)c1` [gemfibrozilglucuronide], the pIC50 on CYP2C8 (0 min) is 4.51; on CYP2C8 (30 min, + NADPH) it was 5.23; at CYP2C8 (30 min, - NADPH), 4.52.

(+) SKF-10,047: the figures for the “Agonistic Effect, Response” value in data set [1] and in data set [1] ([Drug] 1.0E-0.5 M) were 48 % of ligand binding and 17 % of ligand binding, respectively.

Take methoxy-DTP3 [P7 (methoxy DTP3)]: the “radio-labelled species in plasma profile” value in data set [2] (10 m) and in data set [2] (1 hr) was 0.8 throughout.

(Values after article PMC6502747, “Preclinical toxicology and safety pharmacology of the first-in-class GADD45β/MKK7 inhibitor and clinical candidate, DTP3” (Toxicology Reports, 2019).)
